The text below walks through data of ChEMBL document CHEMBL1155790 (Bioorg Med Chem, 2008).

For one test, the target named is T1, Acetylcholinesterase (Bos taurus, UniProt P23795).
T1 sequence (P23795 whole entry): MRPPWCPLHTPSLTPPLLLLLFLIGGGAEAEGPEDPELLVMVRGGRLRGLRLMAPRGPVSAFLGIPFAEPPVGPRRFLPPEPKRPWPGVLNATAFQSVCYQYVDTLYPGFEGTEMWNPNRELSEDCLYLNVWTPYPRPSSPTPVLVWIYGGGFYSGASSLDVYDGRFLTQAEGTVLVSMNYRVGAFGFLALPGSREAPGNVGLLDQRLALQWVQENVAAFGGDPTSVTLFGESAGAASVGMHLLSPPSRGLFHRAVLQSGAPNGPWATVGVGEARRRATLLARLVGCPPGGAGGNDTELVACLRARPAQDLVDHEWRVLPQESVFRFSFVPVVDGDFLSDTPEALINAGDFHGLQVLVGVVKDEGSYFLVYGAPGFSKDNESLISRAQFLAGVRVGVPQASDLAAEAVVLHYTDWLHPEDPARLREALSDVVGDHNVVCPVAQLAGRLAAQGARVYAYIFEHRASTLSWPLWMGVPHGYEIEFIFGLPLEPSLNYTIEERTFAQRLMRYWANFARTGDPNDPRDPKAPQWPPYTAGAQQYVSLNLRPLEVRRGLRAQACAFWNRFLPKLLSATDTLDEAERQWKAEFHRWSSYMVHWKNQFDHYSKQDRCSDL

In test [1] the target is T2, Acetylcholinesterase (Bos taurus) (UniProt P23795).
T2 sequence (whole entry): T1 sequence (P23795 whole entry)
Description: Inhibition of bovine AChE at 10 uM by Ellman's method. Background: Ellman's reagent forms a yellow product with free thiols.

In test [2] the target is Cholinesterase (Equus caballus) (UniProt P81908). Description: Inhibition of equine BChE at 50 uM by Ellman's method.
The target in a further test is Cholinesterase (Equus caballus, UniProt P81908).
Test [3] can be described thus: Selectivity index, IC50 for equine BChE to IC50 for bovine AChE by Ellman's method.
The target in test [4] is Cholinesterase (Equus caballus) (UniProt P81908). Description: Inhibition of equine BChE at 10 uM by Ellman's method.
Test [5] addresses T2, Acetylcholinesterase (Bos taurus). The test is described as follows: Inhibition of bovine AChE at 50 uM by Ellman's method.

Structures are written as SMILES.

Cholinesterase, sequence (P81908 whole entry): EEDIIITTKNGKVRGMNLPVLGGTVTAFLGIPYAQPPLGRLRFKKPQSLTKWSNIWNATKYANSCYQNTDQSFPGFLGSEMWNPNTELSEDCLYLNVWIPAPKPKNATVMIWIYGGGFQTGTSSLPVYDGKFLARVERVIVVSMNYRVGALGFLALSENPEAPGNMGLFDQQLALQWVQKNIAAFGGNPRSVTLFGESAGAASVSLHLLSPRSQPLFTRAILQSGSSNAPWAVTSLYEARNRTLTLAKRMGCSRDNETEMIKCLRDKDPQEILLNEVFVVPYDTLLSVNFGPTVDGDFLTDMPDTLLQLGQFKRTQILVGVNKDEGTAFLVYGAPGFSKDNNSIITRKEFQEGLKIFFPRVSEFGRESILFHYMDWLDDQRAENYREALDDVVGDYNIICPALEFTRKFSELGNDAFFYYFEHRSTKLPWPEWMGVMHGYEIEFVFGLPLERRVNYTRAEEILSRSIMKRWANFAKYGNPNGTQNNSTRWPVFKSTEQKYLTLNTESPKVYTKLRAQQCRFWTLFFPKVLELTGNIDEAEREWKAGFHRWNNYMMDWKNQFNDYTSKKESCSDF
Cholinesterase (Equus caballus), sequence (P81908 whole entry): as above

One may read the IC50 as the concentration needed to halve the response being measured. A high value points to weaker potency in that assay. `C=CC[N+](C)(C)c1ccc(CCC(=O)CCc2ccc([N+](C)(C)CC=C)cc2)cc1` gave an IC50 on Acetylcholinesterase of 8 nM. Broadly, the inhibition is the percentage by which the read-out fell short of the control. The low end stands for a response near the control, the high end for a response far below the control. `CN(C)c1cc(O)cc(OCCCCOc2cc(O)cc(N(C)Cc3ccccc3)c2)c1`: in test [1], the inhibition amounted to 40%. `Cc1c(C)c2ccc(OCCCCOc3cc(O)cc(N(C)C)c3)cc2oc1=O` had a concentration for half-maximal inhibition (IC50) on Acetylcholinesterase of 275 nM. In addition, in test [2], the inhibition was found to be 25%. As for `C[N+](C)(C)c1cc(O)cc(OCCCOc2cc(O)cc([N+](C)(C)C)c2)c1`, the figures for the IC50 on Cholinesterase and against Acetylcholinesterase were 718 nM and 0.49 nM, respectively. The compound also showed a Selectivity Index in test [3] of 1460.

As for `Cc1c(C)c2ccc(OCCCCOc3cc(O)cc(N(C)Cc4ccccc4)c3)cc2oc1=O`, the inhibition in test [1] was determined as 15%.

Take `COc1ccc2c(C)c(C)c(=O)oc2c1`: at Acetylcholinesterase, the IC50 worked out at 42000 nM. The same compound returned an inhibition in test [4] of 25%. Turning to `CN(Cc1ccccc1)c1cc(O)cc(OCCCOc2cc(O)cc(N(C)Cc3ccccc3)c2)c1`, the inhibition in test [5] was determined as 3%. For `Cc1c(C)c2ccc(OCCCOc3cc(O)cc(N(C)C)c3)cc2oc1=O`, the IC50 against Acetylcholinesterase was 871 nM. Same read-out and setting: with `CC[N+](CC)(CCNC(=O)C(=O)NCC[N+](CC)(CC)Cc1ccccc1Cl)Cc1ccccc1Cl` [AMBENONIUM] the figure was 0.12 nM; with `CN(C)c1cc(O)cc(OCCCOc2cc(O)cc(N(C)Cc3ccccc3)c2)c1`, 6170 nM. `CN(C)c1cc(O)cc(OCCCCOc2cc(O)cc(N(C)C)c2)c1` returned an IC50 against Acetylcholinesterase of 6460 nM. The inhibition in test [2] is 25%. For the compound `C[N+](C)(C)c1cc(O)cc(OCCCCOc2cc(O)cc([N+](C)(C)Cc3ccccc3)c2)c1`, the IC50 at Acetylcholinesterase turned out to be 6560 nM. For the same compound, in test [4], the inhibition worked out at 42%. `C[N+](C)(C)c1cc(O)cc(OCCCCOc2cc(O)cc([N+](C)(C)C)c2)c1`: at Cholinesterase, the IC50 was determined as 715 nM.

Turning to `Cc1c(C)c2ccc(OCCCOc3cc(O)cc([N+](C)(C)C)c3)cc2oc1=O`, the IC50 against Cholinesterase was found to be 1060 nM; against Acetylcholinesterase, 2.1 nM. The same compound returned a Selectivity Index in test [3] of 505. `Cc1c(C)c2ccc(OCCCOc3cc(O)cc(N(C)Cc4ccccc4)c3)cc2oc1=O` gave an inhibition in test [1] of 8%. As for `CN(Cc1ccccc1)c1cc(O)cc(OCCCCOc2cc(O)cc(N(C)Cc3ccccc3)c2)c1`, the inhibition in test [5] turned out to be 3%; in test [1] it was 14%. As for `Cc1c(C)c2ccc(OCCCCOc3cc(O)cc([N+](C)(C)C)c3)cc2oc1=O`, the values for the IC50 at Cholinesterase and against Acetylcholinesterase were 708 nM and 1 nM, respectively. The same compound returned a Selectivity Index in test [3] of 708. Consider `C[N+](C)(C)c1cccc(OCCCCOc2cccc([N+](C)(C)C)c2)c1`, for which the results for the IC50 against Cholinesterase and at Acetylcholinesterase were 2340 nM and 158 nM, respectively. The Selectivity Index in test [3] turned out to be 15.

Consider `CN(C)c1cc(O)cc(OCCCOc2cc(O)cc(N(C)C)c2)c1`, for which half-maximal inhibition against Acetylcholinesterase (IC50) was put at 1910 nM. In turn, `C[N+](C)(C)c1cccc(O)c1` gave an IC50 against Acetylcholinesterase of 12000 nM. The compound further returned an inhibition in test [4] of 13%.
